For one data set, the system named is Apis mellifera. The conditions noted are these: acute, mortality.
The subject of a further data set is Typhlodromus pyri. The experiment in a line: LR50; higher = less toxic. To be noted: not reported; mortality.
The next data set deals with Colinus virginianus. The conditions noted are these: mortality.
The next data set deals with Pimephales promelas. To be noted: chronic/long-term; duration: 32 days.
The subject of another data set is Daphnia magna. To be noted: chronic/long-term; duration: 21 days.
Another data set deals with Myriophyllum aquaticum. The conditions noted are these: chronic/long-term; duration: 7 days; growth.
For another data set, the system named is Oncorhynchus mykiss. The conditions noted are these: acute; duration: 96 hours; mortality.
The subject of another data set is Folsomia candida. To be noted: chronic/long-term; duration: 28 days.
A further data set has as its system Canidae. To be noted: chronic; duration: 1 years; oral; Dog Other; body weight.

Values after ≈ are worked out from the molar mass of the structure shown.

The term NOAEL denotes the highest tested level that showed no adverse finding. In general, LC50 refers to the concentration that kills 50% of the test population.

On to `O=C1CC=C([O-])N=N1.[K+]` [Maleic hydrazide, potassium salt], for which the LD50 in the data set on Apis mellifera (dermal) is over 100 µg/piece; in the data set on Apis mellifera (oral, unspecified), over 100 µg/piece.

The compound `O=c1ccc(=O)[nH][nH]1` [Maleic hydrazide] gave an LR50 in the data set on Typhlodromus pyri of under 3000 g/ha. For the same compound, the LD50 is over 2000 mg/kg in the data set with Rattus norvegicus (acute, oral, M/F, mortality) and over 1490 mg/kg with Colinus virginianus (acute, oral). In addition, the no-observed-adverse-effect level (NOAEL) stood at 25 mg/kg-day in the data set with Rattus norvegicus (chronic, duration: 2 years, body weight); 398 mg/kg-day with Rattus norvegicus (reproduction developmental, body weight); 22 mg/kg-day in the data set with Rattus norvegicus (short-term, duration: 28 days, inhalation); 25 mg/kg-day in the data set with Canidae. Further, the NOEC in the data set with Colinus virginianus (chronic) was 542 mg/kg-day; in the data set on Pimephales promelas, 9.6 mg/L; in the data set on Daphnia magna, 0.57 mg/L; in the data set on Myriophyllum aquaticum it was 3.2 mg/L; with Folsomia candida it was 113 mg/kg. The compound also gave an LC50 with Oncorhynchus mykiss of 79.4 µg/mL (≈ 708 µM).
